What was measured:
Assay type in all cases: in vivo
[1] = tested on: Echinochloa crus-galli (ECHCG); test: Test 1A glasshouse assay, pre-emergence herbicidal activity; conditions: 312 h, 250 g/ha, 13 days after application, read-out: Pre-Emergence Herbicidal Activity (% Phytotoxicity) ECHCG
Protocol: Seeds of a variety of test species are sown in standard soil (usually sandy soil) in pots. After cultivation for one day (pre-emergence) or after 8 days cultivation (post-emergence) under controlled conditions in a glasshouse (at 24/16° C., day/night; 14 hours light; 65% humidity), the plants are sprayed with an aqueous spray solution derived from the formulation of the technical active ingredient (compound) in acetone/water (50:50) solution containing 0.5% Tween 20 (polyoxyethylene sorbitan monolaurate, CAS RN 9005-64-5). The test plants are then grown under controlled conditions in a glasshouse (at 24/16° C., day/night; 14 hours light; 65% humidity) and watered twice daily. 13 days after application of the test compounds, for pre- and post-emergence, the test is evaluated visually for percentage phytotoxicity to each plant (where 100%=total damage to plant; 0%=no damage to plant).
Alopecurus myosuroides (ALOMY), Setaria faberi (SETFA), Echinochloa crus-galli (ECHCG), Amaranthus retroflexus (AMARE), and Abutilon theophasti Medik. (ABUTH, common English name “velvetleaf”). Of these, Alopecurus myosuroides (ALOMY), Setaria faberi (SETFA), and Echinochloa crus-galli (ECHCG) are grassy monocotyledonous weeds. […]

[2] = tested on: Echinochloa crus-galli (ECHCG); test: Biological Example 3 (Test 2 glasshouse assay), post-emergence herbicidal activity
Protocol: (§1) Seeds of a variety of monocotyledonous and dicotyledonous test plants are sown in standard soil in pots. The plants are cultivated for one day (for pre-emergence) or for about 12 days (range=10-13 days) (for post-emergence) under controlled conditions in a glasshouse (warm climate species at 24/18° C., cool climate species at 20/16° C., both at day/night; 16 hours light; 65% humidity).
(§2) An “instant formulation”, known as the “IF50”, containing 50 g/litre (i.e. 5% w/v) of the “technical” (i.e. unformulated) active ingredient is prepared by dissolving the active ingredient in a mixture of organic solvents and emulsifier, details of which are provided in the Table below. This IF50 is then mixed with a small, variable amount of acetone to aid dissolution, before addition of a 0.2% v/v aqueous solution of the adjuvant X-77 (which is a mixture of alkyl aryl polyoxyethylene glycols and free fatty acids in isopropanol, CAS Registry number 11097-66-8), as the aqueous diluent, to form an aqueous spray solution which contains a predetermined concentration of the active ingredient (which varies depending on the application rate of the active ingredient to the plants) and 0.2% v/v of the adjuvant X-77. This aqueous spray solution is then sprayed onto the plants, after one day's cultivation (for pre-emergence) or after about 12 days' cultivation (for post-emergence).
(§3) The test plants are then grown on, in a glasshouse (greenhouse) under controlled conditions (at either 24/18° C. or 20/16° C. (day/night) as mentioned above; 16 hours light; 65% humidity) and are watered twice daily. Either 15 days after application of the test compound (15 DAA) (for post-emergence), or 20 days after application of the test compound (20 DAA) (for pre-emergence), the test plants are evaluated visually, and an assessed percentage phytotoxicity score is given for each compound application on each plant species (where 100%=total damage to plant; 0%=no damage to plant).
(§4) Cool climate crop plants: Triticum aestivum (TRZAW, winter wheat), Brassica napus (BRSNN, rape, also called oilseed rape or rapeseed), Beta vulgaris (BEAVA, sugar beet). Warm climate crop plants: Glycine max (GLXMA, soybean). Cool climate (“cool season”) grassy monocotyledonous weeds: Alopecurus myosuroides (ALOMY), Avena fatua (AVEFA), Lolium perenne (LOLPE). Warm climate (“warm season”) grassy monocotyledonous weeds: Setaria faberi (SETFA), SORVU (Sorghum bicolor (L.) Moench ssp. Bicolor, or Sorghum vulgare Pers.), Digitaria sanguinalis (DIGSA), Echinochloa crus-galli (ECHCG), and Brachiaria plantaginea (BRAPL).

[3] = tested on: Beta vulgaris (BEAVA, sugar beet); test: as above
Protocol: as §1, §2, §3, §4

[4] = tested on: Triticum aestivum (TRZAW, winter wheat); test: as above
Protocol: as §1, §2, §3, §4

[5] = tested on: SORVU (Sorghum bicolor (L.) Moench ssp. Bicolor, or Sorghum vulgare Pers.); test: as above
Protocol: as §1, §2, §3, §4

[6] = tested on: Brassica napus (BRSNN, rape); test: as above
Protocol: as §1, §2, §3, §4

[7] = tested on: Brachiaria plantaginea (BRAPL); test: as above
Protocol: as §1, §2, §3, §4

[8] = tested on: Alopecurus myosuroides (ALOMY); test: as above
Protocol: as §1, §2, §3, §4

[9] = tested on: Digitaria sanguinalis (DIGSA); test: as above
Protocol: as §1, §2, §3, §4

[10] = tested on: Glycine max (GLXMA, soybean); test: as above
Protocol: as §1, §2, §3, §4

Lolium perenne (LOLPE) = test: as above
Protocol: as §1, §2, §3, §4

Setaria faberi (SETFA) = test: as above
Protocol: as §1, §2, §3, §4

Structure (SMILES) | inhibition at 250 g/ha [1] [%] | Post-Emergence Herbicidal Activity (Percentage Phytotoxicity) ECHCG ([2]; 30 g/ha (rate by row order)) [%] | Post-Emergence Herbicidal Activity (Percentage Phytotoxicity) ECHCG ([2]; 125 g/ha (rate by row order)) [%] | Post-Emergence Herbicidal Activity (Percentage Phytotoxicity) BEAVA ([3]; 30 g/ha) [%] | Post-Emergence Herbicidal Activity (Percentage Phytotoxicity) BEAVA ([3]; 125 g/ha) [%] | Post-Emergence Herbicidal Activity (Percentage Phytotoxicity) TRZAW ([4]; 30 g/ha) [%] | Post-Emergence Herbicidal Activity (Percentage Phytotoxicity) TRZAW ([4]; 125 g/ha) [%] | Post-Emergence Herbicidal Activity (Percentage Phytotoxicity) SORVU ([5]; 30 g/ha (rate by row order)) [%] | Post-Emergence Herbicidal Activity (Percentage Phytotoxicity) SORVU ([5]; 125 g/ha (rate by row order)) [%] | Post-Emergence Herbicidal Activity (Percentage Phytotoxicity) BRSNN ([6]; 30 g/ha) [%] | Post-Emergence Herbicidal Activity (Percentage Phytotoxicity) BRSNN ([6]; 125 g/ha) [%] | Post-Emergence Herbicidal Activity (Percentage Phytotoxicity) BRAPL ([7]; 30 g/ha (rate by row order)) [%] | Post-Emergence Herbicidal Activity (Percentage Phytotoxicity) BRAPL ([7]; 125 g/ha (rate by row order)) [%] | Post-Emergence Herbicidal Activity (Percentage Phytotoxicity) ALOMY ([8]; 30 g/ha) [%] | Post-Emergence Herbicidal Activity (Percentage Phytotoxicity) ALOMY ([8]; 125 g/ha) [%] | Post-Emergence Herbicidal Activity (Percentage Phytotoxicity) DIGSA ([9]; 30 g/ha (rate by row order)) [%] | Post-Emergence Herbicidal Activity (Percentage Phytotoxicity) DIGSA ([9]; 125 g/ha (rate by row order)) [%] | Post-Emergence Herbicidal Activity (Percentage Phytotoxicity) GLXMA ([10]; 30 g/ha) [%] | Post-Emergence Herbicidal Activity (Percentage Phytotoxicity) GLXMA ([10]; 125 g/ha) [%] | Post-Emergence Herbicidal Activity (Percentage Phytotoxicity) LOLPE (Lolium perenne (LOLPE); 30 g/ha) [%] | further results
CC#Cc1cc(C)c(C2C(=O)N(C)N(C)C2=O)c(C)c1 [Compound A1] | 30 | 70 | 90 | 0 | 10 | 30 | 80 | 70 | 80 | 70 | 70 | 70 | 100 | 10 | 70 | 80 | 90 | 30 | 70 | 30 | Post-Emergence Herbicidal Activity (Percentage Phytotoxicity) LOLPE (Lolium perenne (LOLPE); 125 g/ha): 80%
CC#Cc1cc(C)c(C2C(=O)N3CCCCCN3C2=O)c(C)c1 [Compound A23, 2-(2,6-dimethyl-4-prop-1-ynyl-phenyl)-6,7,8,9-tetrahydro-5H-pyrazolo[1,2-a]diazepine-1,3-dione] | 90 | 0 | 20 | 10 | 40 | 0 | 50 | 50 | 70 | 30 | 50 | 0 | 10 | 0 | 50 | 30 | 70 | 0 | 70 | 0 | Post-Emergence Herbicidal Activity (Percentage Phytotoxicity) LOLPE (Lolium perenne (LOLPE); 125 g/ha): 40%; Post-Emergence Herbicidal Activity (Percentage Phytotoxicity) SETFA (Setaria faberi (SETFA); 30 g/ha (rate by row order)): 0%; Post-Emergence Herbicidal Activity (Percentage Phytotoxicity) SETFA (Setaria faberi (SETFA); 125 g/ha (rate by row order)): 70%
CC#Cc1cc(C)c(-c2c(OC(=O)C(C)(C)C)n(C)n(C)c2=O)c(C)c1 [Compound P1] | 100 | 70 | 100 | 10 | 40 | 0 | 70 | 60 | 80 | 80 | 80 | 70 | 100 | 60 | 70 | 90 | 100 | 30 | 40 | 50 | Post-Emergence Herbicidal Activity (Percentage Phytotoxicity) ECHCG ([2]; 8 g/ha (rate by row order)): 20%; Post-Emergence Herbicidal Activity (Percentage Phytotoxicity) BEAVA ([3]; 8 g/ha): 30%; Post-Emergence Herbicidal Activity (Percentage Phytotoxicity) TRZAW ([4]; 8 g/ha): 0%; Post-Emergence Herbicidal Activity (Percentage Phytotoxicity) SORVU ([5]; 8 g/ha (rate by row order)): 50%; Post-Emergence Herbicidal Activity (Percentage Phytotoxicity) BRSNN ([6]; 8 g/ha): 0%; Post-Emergence Herbicidal Activity (Percentage Phytotoxicity) BRAPL ([7]; 8 g/ha (rate by row order)): 60%; Post-Emergence Herbicidal Activity (Percentage Phytotoxicity) ALOMY ([8]; 8 g/ha): 40%; Post-Emergence Herbicidal Activity (Percentage Phytotoxicity) DIGSA ([9]; 8 g/ha (rate by row order)): 80%; Post-Emergence Herbicidal Activity (Percentage Phytotoxicity) GLXMA ([10]; 8 g/ha): 10%; Post-Emergence Herbicidal Activity (Percentage Phytotoxicity) LOLPE (Lolium perenne (LOLPE); 8 g/ha): 30%; Post-Emergence Herbicidal Activity (Percentage Phytotoxicity) LOLPE (Lolium perenne (LOLPE); 125 g/ha): 80%; Post-Emergence Herbicidal Activity (Percentage Phytotoxicity) SETFA (Setaria faberi (SETFA); 8 g/ha (rate by row order)): 20%; Post-Emergence Herbicidal Activity (Percentage Phytotoxicity) SETFA (Setaria faberi (SETFA); 30 g/ha (rate by row order)): 90%; Post-Emergence Herbicidal Activity (Percentage Phytotoxicity) SETFA (Setaria faberi (SETFA); 125 g/ha (rate by row order)): 100%

Source: US20160219881A1, “HERBICIDALLY ACTIVE 2-HALOGEN-4-ALKYNYL-PHENYL-PYRAZOLIDINE-DIONE OR PYRROLIDINE-DIONE DERIVATIVES” (SYNGENTA LIMITED, priority 2013, published 2016)
